According to patent US10881106B2, “Herbicidal pyridazinone compounds” (SYNGENTA PARTICIPATIONS AG, priority 2016, dated 2021):

Legend:
Format in all cases: in vivo
[1] = test system: Abutilon theophrasti (ABUTH); assay: Post-emergence glasshouse herbicide test, percentage damage to plant; details: POST Application, 125 g/ha, evaluated after 14 days
Procedure: (§1) Seeds of a variety of test species were sown in standard soil in pots (Amaranthus retoflexus (AMARE), Abutilon theophrasti (ABUTH), Digitaria sanguinalis (DIGSA), Setaria faberi (SETFA) and Zea mays (ZEAMX). After cultivation for 10 days under controlled conditions in a glasshouse (at 24/16° C., day/night; 14 hours light; 65% humidity), the plants were sprayed with an aqueous spray solution derived from the formulation of the technical active ingredient in 0.6 ml acetone and 45 ml formulation solution containing 10.6% Emulsogen EL (Registry number 61791-12-6), 42.2% N-methyl pyrrolidone, 42.2% dipropylene glycol monomethyl ether (CAS RN 34590-94-8) and 0.2% X-77 (CAS RN 11097-66-8). The test plants were then grown in a glasshouse under controlled conditions in a glasshouse (at 24/16° C., day/night; 14 hours light; 65% humidity) and watered twice daily. After 14 days the test is evaluated for the percentage damage caused to the plant. The biological activities are shown in the following table on a five point scale (5=80-100%; 4=60-79%; 3=40-59%; 2=20-39%; 1=0-19%).

[2] = test system: Amaranthus retoflexus (AMARE); assay: as above; details: POST Application, 125 g/ha, evaluated after 14 days
Procedure: as §1

[3] = test system: Digitaria sanguinalis (DIGSA); assay: as above; details: POST Application, 125 g/ha, evaluated after 14 days
Procedure: as §1

[4] = test system: Setaria faberi (SETFA); assay: as above; details: POST Application, 125 g/ha, evaluated after 14 days
Procedure: as §1

[5] = test system: Zea mays (ZEAMX); assay: Post-emergence glasshouse herbicide test, percentage damage to crop plant; details: POST Application, 125 g/ha, evaluated after 14 days; crop (corn)
Procedure: as §1

SMILES | ABUTH percentage damage caused to the plant (five point scale) [1] | AMARE percentage damage caused to the plant (five point scale) [2] | DIGSA percentage damage caused to the plant (five point scale) [3] | SETFA percentage damage caused to the plant (five point scale) [4] | ZEAMX percentage damage caused to the plant (five point scale) [5]
Cc1cc(C(=O)C2=C([O-])CC(C)CC2=O)c(=O)n(CCC(=O)N(C)CC(F)(F)F)n1.[Na+] (centres unmarked) [Compound 1.020] | 5 (5=80-100%) | 4 (4=60-79%) | 5 (5=80-100%) | 5 (5=80-100%) | 1 (1=0-19%)
CCN(C)C(=O)OCCn1nc(C)cc(C(=O)C2=C([O-])CCCC2=O)c1=O.[Na+] [Compound 1.022] | 5 (5=80-100%) | 5 (5=80-100%) | 5 (5=80-100%) | 5 (5=80-100%) | 1 (1=0-19%)
Cc1cc(C(=O)C2=C([O-])CCCC2=O)c(=O)n(CCC(=O)N(C)CC(F)(F)F)n1.[Na+] [Compound 1.014] | 5 (5=80-100%) | 5 (5=80-100%) | 5 (5=80-100%) | 5 (5=80-100%) | 1 (1=0-19%)
Cc1cc(C(=O)C2=C([O-])CC(C)(C)CC2=O)c(=O)n(CCOC(=O)N(C)C)n1.[Na+] [Compound 1.027] | 5 (5=80-100%) | 5 (5=80-100%) | 5 (5=80-100%) | 5 (5=80-100%) | 1 (1=0-19%)
CCN(C)C(=O)CCn1nc(C)cc(C(=O)C2=C([O-])CCCC2=O)c1=O.[Na+] [Compound 1.013] | 5 (5=80-100%) | 5 (5=80-100%) | 5 (5=80-100%) | 5 (5=80-100%) | 1 (1=0-19%)
Cc1cc(C(=O)C2=C([O-])CC(C)CC2=O)c(=O)n(CCC(=O)N(C)C)n1.[Na+] (centres unmarked) [Compound 1.010] | 5 (5=80-100%) | 5 (5=80-100%) | 5 (5=80-100%) | 5 (5=80-100%) | 1 (1=0-19%)
CCN(CC)C(=O)OCCn1nc(C)cc(C(=O)C2=C([O-])CCCC2=O)c1=O.[Na+] [Compound 1.021] | 5 (5=80-100%) | 4 (4=60-79%) | 5 (5=80-100%) | 5 (5=80-100%) | 1 (1=0-19%)
Cc1cc(C(=O)C2=C([O-])CC(C)CC2=O)c(=O)n(CCOC(=O)N(C)C)n1.[Na+] (centres unmarked) [Compound 1.026] | 5 (5=80-100%) | 5 (5=80-100%) | 5 (5=80-100%) | 5 (5=80-100%) | 1 (1=0-19%)
Cc1cc(C(=O)C2=C([O-])CCCC2=O)c(=O)n(CCC(=O)N(C)C)n1.[Na+] [Compound 1.002, sodium 2-[2-[3-(dimethylamino)-3-oxo-propyl]-6-methyl-3-oxo-pyridazine-4-carbonyl]-3-oxo-cyclohexen-1-olate] | 5 (5=80-100%) | 5 (5=80-100%) | 5 (5=80-100%) | 5 (5=80-100%) | 1 (1=0-19%)
Cc1cc(C(=O)C2=C([O-])CCCC2=O)c(=O)n(C(C)C(=O)N(C)C)n1.[Na+] (centres unmarked) [Compound 1.029] | 5 (5=80-100%) | 5 (5=80-100%) | 5 (5=80-100%) | 5 (5=80-100%) | 1 (1=0-19%)
